The subject of test [1] is spinal cord slices. Briefly: Immunofluorescent staining of lysolecithin-demyelinated spinal cord slices. The test is classed as cell-based, Sprague-Dawley rats. As to conditions: spinal cord slices treated with 0.5 mg/ml lysolecithin for 17 hours, compared with the control; FIG. 1. From the text: (§1) <1-2> Preparation of Spinal Cord Tissue Slices Sprague-Dawley rats at 16 days old were anesthetized and the spinal cord was extracted. The spinal cord was put into ice-cold HBSS (Hanks balanced salt solution). Thoracic and lumbar spinal cords were cult into 400 μm in thickness by using a tissue chopper (McIlwain tissue chopper, The Mickle Laboratory Engineering Co. LTD, England). Several spinal cord slices were loaded on 0.4 μm filter (Millicell-CM filters, Millipore, USA) placed on a 6 well plate. The spinal cord slices were cultured in 1 ml of 25% horse serum (Invitrogen, USA) containing 50% MEM (Invitrogen, USA) supplemented with Earl's salts, 25% HBSS (Invitrogen, USA), 20 mM HEPES (Sigma, USA) and 6 mg/ml of D-glucose (Duchefa, Netherlands). The culture conditions were 5% CO2, 37° C. and the medium was replaced with a fresh medium twice a week. <1-3> Demyelination by Lysolecithin
(§2) The spinal cord slices were cultured in vitro (DIV, days in vitro) for 7 days. After treating 0.5 mg/ml of lysolecithin, the slices were cultured at 37° C. for 17 hours to induce demyelination of axons (Birgbauer et al., J Neurosci Res, 78, 157-166, 2004). After inducing demyelination, the medium containing lysolecithin was replaced with 1 ml of fresh medium. […]

Test [2] relates to spinal cord slices. Briefly: Histological analysis of spinal cord tissue slices (Luxol fast blue, H&E). The test is classed as cell-based, Sprague-Dawley rats. To be noted: spinal cord slices treated with 0.5 mg/ml lysolecithin for 17 hours, compared with the control; FIG. 1.
Description: as §1, §2

With lysolecithin, the MBP expression result in the test with spinal cord slices [1] was “decreased”. Also, the “demyelination (myelin, Luxol fast blue staining)” value in the test with spinal cord slices [2] is “serious demyelination was observed”.
